Reference: patent US20260035359A1, “HERBICIDAL IMIDAZOLE COMPOUNDS” (SYNGENTA CROP PROTECTION AG, priority 2022, published 2026)

Legend:
Format in all cases: in vivo
[1] = test system: Echinochloa crus-gali (ECHCG); assay: Post-emergence herbicidal glasshouse test; conditions: 250 g/ha, sprayed after 8 days cultivation, evaluated after 13 days
Method: (§1) Seeds of a variety of test species are sown in standard soil in pots Amaranthus pa/meri (AMAPA), Amaranthus retoflexus (AMARE), Echinochloa crus-gali (ECHCG), Ipomoea hederacea (IPOHE), Setaria faberi (SETFA). After cultivation for one day (pre-emergence) or after 8 days cultivation (post-emergence) under controlled conditions in a glasshouse (at 24/16° C., day/night; 14 hours light; 65% humidity), the plants are sprayed with an aqueous spray solution derived from the formulation of the technical active ingredient in acetone/water (50:50) solution containing 0.5% Tween 20 (polyoxyethelyene sorbitan monolaurate, CAS RN 9005-64-5). Compounds are applied at 250 g/ha unless otherwise stated. The test plants are then grown in a glasshouse under controlled conditions in a glasshouse (at 24/16° C., day/night; 14 hours light; 65% humidity) and watered twice daily. After 13 days for pre and post-emergence, the test is evaluated for the percentage damage caused to the plant. The biological activities are shown in the following table on a five-point scale (5=81-100%; 4=61-80%; 3=41-60%; 2=21-40%; 1=0-20%).

[2] = test system: Amaranthus pa/meri (AMAPA); assay: Post-emergence herbicidal glasshouse test; conditions: 250 g/ha, sprayed after 8 days cultivation, evaluated after 13 days
Method: as §1

[3] = test system: Ipomoea hederacea (IPOHE); assay: Post-emergence herbicidal glasshouse test; conditions: 250 g/ha, sprayed after 8 days cultivation, evaluated after 13 days
Method: as §1

[4] = test system: Amaranthus retoflexus (AMARE); assay: Post-emergence herbicidal glasshouse test; conditions: 250 g/ha, sprayed after 8 days cultivation, evaluated after 13 days
Method: as §1

[5] = test system: Echinochloa crus-gali (ECHCG); assay: Pre-emergence herbicidal glasshouse test; conditions: 250 g/ha, sprayed after one day cultivation, evaluated after 13 days
Method: as §1

[6] = test system: Amaranthus pa/meri (AMAPA); assay: Pre-emergence herbicidal glasshouse test; conditions: 250 g/ha, sprayed after one day cultivation, evaluated after 13 days
Method: as §1

[7] = test system: Ipomoea hederacea (IPOHE); assay: Pre-emergence herbicidal glasshouse test; conditions: 250 g/ha, sprayed after one day cultivation, evaluated after 13 days
Method: as §1

[8] = test system: Amaranthus retoflexus (AMARE); assay: Pre-emergence herbicidal glasshouse test; conditions: 250 g/ha, sprayed after one day cultivation, evaluated after 13 days
Method: as §1

Row | Compound | percentage damage caused to the plant, ECHCG [1] | percentage damage caused to the plant, AMAPA [2] | percentage damage caused to the plant, IPOHE [3] | percentage damage caused to the plant, AMARE [4] | percentage damage caused to the plant, ECHCG [5] | percentage damage caused to the plant, AMAPA [6] | percentage damage caused to the plant, IPOHE [7] | percentage damage caused to the plant, AMARE [8]
1 | O=S(=O)(CCC(F)(F)F)c1nc(C(F)F)cn1Cc1ncc(Cl)cn1 [Compound 1.009] | 1 (1=0-20%) | 1 (1=0-20%) | 1 (1=0-20%) | 1 (1=0-20%) | 1 (1=0-20%) | 1 (1=0-20%) | 2 (2=21-40%) | 1 (1=0-20%)
2 | COCCc1nc(C(F)(F)F)cn1Cc1ncc(Cl)cn1 [Compound 1.018] | 1 (1=0-20%) | 2 (2=21-40%) | 3 (3=41-60%) | 2 (2=21-40%) | 1 (1=0-20%) | 4 (4=61-80%) | 4 (4=61-80%) | 5 (5=81-100%)
3 | FC(F)COCCc1nc(C(F)(F)F)cn1Cc1ncc(Cl)cn1 [Compound 1.017] | 3 (3=41-60%) | 4 (4=61-80%) | 4 (4=61-80%) | 4 (4=61-80%) | 5 (5=81-100%) | 5 (5=81-100%) | 5 (5=81-100%) | 5 (5=81-100%)
4 | C#CCON=CCCc1nc(C(F)(F)F)cn1Cc1ncc(Cl)cn1 (single isomer, unassigned) [Compound 1.028] | 2 (2=21-40%) | 4 (4=61-80%) | 2 (2=21-40%) | 5 (5=81-100%) | 1 (1=0-20%) | 5 (5=81-100%) | 4 (4=61-80%) | 5 (5=81-100%)
5 | FC(F)(F)c1cn(Cc2ncc(Cl)cn2)c(CCCCl)n1 [Compound 1.051, 5-chloro-2-[[2-(3-chloropropyl)-4-(trifluoromethyl)imidazol-1-yl]methyl]pyrimidine] | 4 (4=61-80%) | 4 (4=61-80%) | 4 (4=61-80%) | 5 (5=81-100%) | 2 (2=21-40%) | 5 (5=81-100%) | 5 (5=81-100%) | 5 (5=81-100%)
6 | CCCCc1nc(I)cn1Cc1ncc(Cl)cn1 [Compound 1.079] | 1 (1=0-20%) | 1 (1=0-20%) | 1 (1=0-20%) | 1 (1=0-20%) | 1 (1=0-20%) | 1 (1=0-20%) |  | 1 (1=0-20%)
7 | FC(F)(F)c1cn(Cc2ncc(Cl)cn2)c(CC2CCOCC2)n1 [Compound 1.075] | 4 (4=61-80%) | 4 (4=61-80%) | 4 (4=61-80%) | 4 (4=61-80%) | 4 (4=61-80%) | 5 (5=81-100%) | 5 (5=81-100%) | 5 (5=81-100%)
8 | CCCCc1nc(C(F)(F)F)cn1Cc1ccc(Cl)cn1 [Compound 1.057] | 1 (1=0-20%) | 2 (2=21-40%) | 2 (2=21-40%) | 3 (3=41-60%) | 1 (1=0-20%) | 5 (5=81-100%) | 1 (1=0-20%) | 3 (3=41-60%)
9 | CCCCCc1nc(C(F)(F)F)cn1Cc1ncc(Cl)cn1 [Compound 1.019] | 3 (3=41-60%) | 2 (2=21-40%) | 1 (1=0-20%) | 2 (2=21-40%) | 5 (5=81-100%) | 5 (5=81-100%) | 1 (1=0-20%) | 5 (5=81-100%)
10 | N#CCCc1nc(C(F)(F)F)cn1Cc1ncc(Cl)cn1 [Compound 1.029] | 1 (1=0-20%) | 4 (4=61-80%) | 3 (3=41-60%) | 4 (4=61-80%) | 2 (2=21-40%) | 5 (5=81-100%) | 5 (5=81-100%) | 5 (5=81-100%)
11 | CCCCc1nc(I)c(I)n1Cc1ncc(Cl)cn1 [Compound 1.078] | 1 (1=0-20%) | 2 (2=21-40%) | 1 (1=0-20%) | 2 (2=21-40%) | 1 (1=0-20%) | 1 (1=0-20%) | 1 (1=0-20%) | 1 (1=0-20%)
12 | CCCCCc1nc(C(F)(F)F)cn1Cc1ncc(C)cn1 [Compound 1.016] | 1 (1=0-20%) | 1 (1=0-20%) | 2 (2=21-40%) | 2 (2=21-40%) | 1 (1=0-20%) | 5 (5=81-100%) | 2 (2=21-40%) | 5 (5=81-100%)
13 | ON=CCCc1nc(C(F)(F)F)cn1Cc1ncc(Cl)cn1 (single isomer, unassigned) [Compound 1.005] | 1 (1=0-20%) | 3 (3=41-60%) | 2 (2=21-40%) | 3 (3=41-60%) | 1 (1=0-20%) | 1 (1=0-20%) | 1 (1=0-20%) | 1 (1=0-20%)
14 | CCCCc1nc(C(F)(F)F)cn1Cc1ccc(Cl)cn1 [Compound 1.055] | 1 (1=0-20%) | 1 (1=0-20%) | 1 (1=0-20%) | 1 (1=0-20%) | 1 (1=0-20%) | 1 (1=0-20%) | 3 (3=41-60%) | 1 (1=0-20%)
15 | FC(F)c1cn(Cc2ncc(Cl)cn2)c(SCCC(F)(F)F)n1 [Compound 1.012] | 1 (1=0-20%) | 1 (1=0-20%) | 2 (2=21-40%) | 1 (1=0-20%) | 1 (1=0-20%) | 1 (1=0-20%) | 1 (1=0-20%) | 1 (1=0-20%)
16 | FC(F)(F)c1cn(Cc2ncc(Cl)cn2)c(CCC=NOCC2CC2)n1 (single isomer, unassigned) [Compound 1.006] | 1 (1=0-20%) | 3 (3=41-60%) | 2 (2=21-40%) | 3 (3=41-60%) | 1 (1=0-20%) | 2 (2=21-40%) | 1 (1=0-20%) | 5 (5=81-100%)
17 | FC(F)CCc1nc(C(F)(F)F)cn1Cc1ncc(Cl)cn1 [Compound 1.010, 5-chloro-2-[[2-(3,3-difluoropropyl)-4-(trifluoromethyl)-imidazol-1-yl]methyl]-pyrimidine] | 4 (4=61-80%) | 4 (4=61-80%) | 4 (4=61-80%) | 4 (4=61-80%) | 4 (4=61-80%) | 5 (5=81-100%) | 5 (5=81-100%) | 5 (5=81-100%)
